Legend:
[1] = biological target: 5-hydroxytryptamine receptor 5A (Bos mutus, UniProt L8HQU1)
Vasopressin V2 receptor = Vasopressin V2 receptor (Bos taurus, UniProt P48044)
Histamine receptor H3 = Histamine receptor H3 (Bos taurus, UniProt F1MML8)
Glutamate receptor [2] = biological target: Glutamate receptor (Bos taurus, UniProt A4FV91)
Dopamine receptor D4 = Dopamine receptor D4 (Bos taurus, UniProt Q8WNT0)
Thromboxane-A synthase = Thromboxane-A synthase (Bos taurus, UniProt Q2KIG5)
Nischarin = Nischarin (Bos mutus, UniProt L8IEU8)
Nischarin, sequence (L8IEU8 whole entry): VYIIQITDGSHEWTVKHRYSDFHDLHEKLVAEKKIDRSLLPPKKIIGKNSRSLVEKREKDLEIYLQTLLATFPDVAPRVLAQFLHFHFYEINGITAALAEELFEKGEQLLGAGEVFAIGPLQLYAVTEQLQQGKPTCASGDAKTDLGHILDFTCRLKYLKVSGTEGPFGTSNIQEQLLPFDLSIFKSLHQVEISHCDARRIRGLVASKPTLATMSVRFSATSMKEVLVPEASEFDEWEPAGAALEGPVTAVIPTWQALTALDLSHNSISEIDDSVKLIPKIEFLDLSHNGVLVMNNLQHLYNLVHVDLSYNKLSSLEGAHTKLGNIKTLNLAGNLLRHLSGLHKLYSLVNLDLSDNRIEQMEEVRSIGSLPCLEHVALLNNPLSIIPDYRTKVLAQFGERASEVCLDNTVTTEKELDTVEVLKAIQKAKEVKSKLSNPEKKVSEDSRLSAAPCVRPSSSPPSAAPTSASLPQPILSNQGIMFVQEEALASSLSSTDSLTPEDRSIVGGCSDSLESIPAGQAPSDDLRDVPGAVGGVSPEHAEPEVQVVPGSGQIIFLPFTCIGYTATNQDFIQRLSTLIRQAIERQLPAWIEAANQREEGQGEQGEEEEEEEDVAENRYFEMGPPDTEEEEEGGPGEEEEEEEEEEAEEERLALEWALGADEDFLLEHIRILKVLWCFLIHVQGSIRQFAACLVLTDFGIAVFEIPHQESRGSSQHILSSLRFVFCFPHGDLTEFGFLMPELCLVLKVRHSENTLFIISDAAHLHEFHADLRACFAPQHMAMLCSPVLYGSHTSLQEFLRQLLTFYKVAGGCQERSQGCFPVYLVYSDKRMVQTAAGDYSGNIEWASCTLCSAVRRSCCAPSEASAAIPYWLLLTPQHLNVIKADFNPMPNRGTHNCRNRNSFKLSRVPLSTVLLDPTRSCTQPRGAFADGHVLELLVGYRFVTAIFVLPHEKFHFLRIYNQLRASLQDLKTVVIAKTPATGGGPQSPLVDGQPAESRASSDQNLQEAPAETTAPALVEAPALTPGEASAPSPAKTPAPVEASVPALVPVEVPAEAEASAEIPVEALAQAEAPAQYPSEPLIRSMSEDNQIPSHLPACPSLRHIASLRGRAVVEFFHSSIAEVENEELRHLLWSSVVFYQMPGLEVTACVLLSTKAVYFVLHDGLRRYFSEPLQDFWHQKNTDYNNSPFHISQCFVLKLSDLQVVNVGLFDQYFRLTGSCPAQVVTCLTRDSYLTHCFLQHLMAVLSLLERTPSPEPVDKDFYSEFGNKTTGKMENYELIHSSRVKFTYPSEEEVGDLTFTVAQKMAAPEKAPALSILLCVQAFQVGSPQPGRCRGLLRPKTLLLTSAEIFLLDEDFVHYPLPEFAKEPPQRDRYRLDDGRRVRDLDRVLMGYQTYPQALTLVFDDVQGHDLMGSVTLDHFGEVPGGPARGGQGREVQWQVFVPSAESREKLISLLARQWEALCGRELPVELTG

[3] = biological target: 5-hydroxytryptamine receptor 2A (Bos taurus, UniProt Q75Z89)
[4] = biological target: Multidrug resistance protein 1 (Bos taurus, UniProt Q65A17)
Multidrug resistance protein 1, sequence (Q65A17 whole entry): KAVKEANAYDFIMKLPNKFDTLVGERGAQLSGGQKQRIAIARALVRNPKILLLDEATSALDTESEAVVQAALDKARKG

Glutamate receptor [5] = biological target: Glutamate receptor (Bos taurus, UniProt E1BGZ0)
[6] = biological target: 5-hydroxytryptamine receptor 6 (Bos mutus, UniProt L8HST4)
[7] = biological target: Potassium voltage-gated channel subfamily H member 2 (Bos taurus, UniProt A5PKI1)
D(1A) dopamine receptor = D(1A) dopamine receptor (Bos taurus, UniProt Q95136)
[8] = biological target: Kappa-type opioid receptor (Bos taurus, UniProt Q2KIP6)
[9] = biological target: 5-hydroxytryptamine receptor 1B (Bos mutus, UniProt L8IGV0)
[10] = biological target: Voltage-dependent L-type calcium channel subunit beta-2 (Bos taurus, UniProt Q9MZL5)
[11] = biological target: 5-hydroxytryptamine receptor 2B (Bos taurus, UniProt Q8MI09)
5-hydroxytryptamine receptor 2B, sequence (Q8MI09 whole entry): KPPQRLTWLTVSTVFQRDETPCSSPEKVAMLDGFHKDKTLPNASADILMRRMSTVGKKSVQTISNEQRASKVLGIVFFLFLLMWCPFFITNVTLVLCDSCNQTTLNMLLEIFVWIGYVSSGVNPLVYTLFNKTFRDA

[12] = biological target: Sodium-dependent dopamine transporter (Bos taurus, UniProt P27922)
[13] = biological target: Vesicle amine transport protein 1 homolog (T. californica)-like (Bos taurus, UniProt Q29RL6)
Histamine H2 receptor = Histamine H2 receptor (Bos mutus, UniProt L8IRW0)
Neuromedin-K receptor = Neuromedin-K receptor (Bos mutus, UniProt L8IYF9)
Histamine H1 receptor = Histamine H1 receptor (Bos taurus, UniProt A5D795)
Vasopressin V1b receptor = Vasopressin V1b receptor (Bos taurus, UniProt F1ME85)
Substance-K receptor = Substance-K receptor (Bos taurus, UniProt P05363)
Substance-K receptor, sequence (P05363 whole entry): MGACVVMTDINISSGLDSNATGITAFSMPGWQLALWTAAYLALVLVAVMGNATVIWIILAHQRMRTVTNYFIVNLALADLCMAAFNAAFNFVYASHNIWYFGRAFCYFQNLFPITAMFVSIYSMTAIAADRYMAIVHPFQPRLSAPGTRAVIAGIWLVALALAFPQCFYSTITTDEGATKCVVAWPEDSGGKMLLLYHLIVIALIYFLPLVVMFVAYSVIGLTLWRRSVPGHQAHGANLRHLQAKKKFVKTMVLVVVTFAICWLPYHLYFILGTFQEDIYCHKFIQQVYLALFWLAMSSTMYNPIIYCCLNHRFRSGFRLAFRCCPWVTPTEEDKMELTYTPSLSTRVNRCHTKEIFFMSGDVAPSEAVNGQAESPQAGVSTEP

[14] = biological target: 5-hydroxytryptamine 1D receptor (Bos taurus, UniProt Q8MI13)
Cannabinoid receptor 2 = Cannabinoid receptor 2 (Bos taurus, UniProt E1B9P2)
Cannabinoid receptor 2, sequence (E1B9P2 whole entry): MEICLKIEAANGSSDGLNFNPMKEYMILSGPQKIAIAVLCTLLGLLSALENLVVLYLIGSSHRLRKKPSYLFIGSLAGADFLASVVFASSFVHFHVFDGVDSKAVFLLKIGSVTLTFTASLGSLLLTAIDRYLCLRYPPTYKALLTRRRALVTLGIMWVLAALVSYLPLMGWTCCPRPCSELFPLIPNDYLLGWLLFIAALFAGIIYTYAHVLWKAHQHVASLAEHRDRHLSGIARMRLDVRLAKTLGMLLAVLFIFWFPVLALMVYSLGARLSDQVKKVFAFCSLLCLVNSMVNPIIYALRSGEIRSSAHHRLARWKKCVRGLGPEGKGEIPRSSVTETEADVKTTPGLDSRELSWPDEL

[15] = biological target: Beta-2 adrenergic receptor (Bos taurus, UniProt Q28044)
Beta-arrestin-1 = Beta-arrestin-1 (Bos taurus, UniProt P17870)
Mu-type opioid receptor = Mu-type opioid receptor (Bos taurus, UniProt P79350)
[16] = biological target: Sodium-dependent noradrenaline transporter (Bos taurus, UniProt P51143)
[17] = biological target: Solute carrier family 22 member 1 (Bos taurus, UniProt A7MBE0)
Solute carrier family 22 member 1, sequence (A7MBE0 whole entry): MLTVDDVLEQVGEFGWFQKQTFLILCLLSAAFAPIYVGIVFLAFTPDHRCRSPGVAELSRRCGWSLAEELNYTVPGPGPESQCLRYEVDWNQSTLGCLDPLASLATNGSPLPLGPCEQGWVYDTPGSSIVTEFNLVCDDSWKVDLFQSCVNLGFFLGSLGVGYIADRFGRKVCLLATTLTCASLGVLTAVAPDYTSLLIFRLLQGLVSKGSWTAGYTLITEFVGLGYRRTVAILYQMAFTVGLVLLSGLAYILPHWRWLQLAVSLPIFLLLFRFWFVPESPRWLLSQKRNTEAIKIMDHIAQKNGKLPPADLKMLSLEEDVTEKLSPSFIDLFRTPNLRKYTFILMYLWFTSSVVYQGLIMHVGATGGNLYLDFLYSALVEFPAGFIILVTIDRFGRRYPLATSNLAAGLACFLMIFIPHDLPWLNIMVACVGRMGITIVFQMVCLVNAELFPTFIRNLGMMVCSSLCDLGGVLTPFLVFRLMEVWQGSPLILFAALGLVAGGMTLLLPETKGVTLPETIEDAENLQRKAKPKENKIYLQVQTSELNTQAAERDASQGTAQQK

[18] = biological target: 5-hydroxytryptamine receptor 7 (Bos mutus, UniProt L8II28)
Vasopressin V1a receptor = Vasopressin V1a receptor (Bos taurus, UniProt A2VDS9)
[19] = biological target: Muscarinic acetylcholine receptor M2 (Bos taurus, UniProt P41985)
[20] = biological target: 4-aminobutyrate aminotransferase, mitochondrial (Bos taurus, UniProt Q9BGI0)
4-aminobutyrate aminotransferase, mitochondrial, sequence (Q9BGI0 whole entry): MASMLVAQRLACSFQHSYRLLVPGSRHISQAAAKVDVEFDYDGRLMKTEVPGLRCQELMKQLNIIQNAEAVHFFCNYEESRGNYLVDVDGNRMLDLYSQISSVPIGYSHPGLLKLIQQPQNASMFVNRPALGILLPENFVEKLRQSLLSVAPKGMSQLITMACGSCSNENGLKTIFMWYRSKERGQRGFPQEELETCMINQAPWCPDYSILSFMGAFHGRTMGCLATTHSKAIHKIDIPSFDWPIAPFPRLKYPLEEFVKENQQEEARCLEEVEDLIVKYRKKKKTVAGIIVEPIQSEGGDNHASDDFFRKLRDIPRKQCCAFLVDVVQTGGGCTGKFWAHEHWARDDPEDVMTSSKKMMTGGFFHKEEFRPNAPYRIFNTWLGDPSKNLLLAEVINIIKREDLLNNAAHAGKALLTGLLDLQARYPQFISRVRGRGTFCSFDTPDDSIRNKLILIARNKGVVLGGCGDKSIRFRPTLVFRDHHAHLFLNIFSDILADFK

Protein lifeguard 1 = Protein lifeguard 1 (Bos taurus, UniProt Q32L53)
[21] = biological target: Gamma-aminobutyric acid receptor subunit alpha-1 (Bos taurus, UniProt P08219)
Beta-arrestin-2 = Beta-arrestin-2 (Bos taurus, UniProt P32120)
D(2) dopamine receptor = D(2) dopamine receptor (Bos taurus, UniProt P20288)
[22] = biological target: 5-hydroxytryptamine receptor 3A (Bos taurus, UniProt F1N4Y2)

Histamine receptor H3, sequence (F1MML8 whole entry): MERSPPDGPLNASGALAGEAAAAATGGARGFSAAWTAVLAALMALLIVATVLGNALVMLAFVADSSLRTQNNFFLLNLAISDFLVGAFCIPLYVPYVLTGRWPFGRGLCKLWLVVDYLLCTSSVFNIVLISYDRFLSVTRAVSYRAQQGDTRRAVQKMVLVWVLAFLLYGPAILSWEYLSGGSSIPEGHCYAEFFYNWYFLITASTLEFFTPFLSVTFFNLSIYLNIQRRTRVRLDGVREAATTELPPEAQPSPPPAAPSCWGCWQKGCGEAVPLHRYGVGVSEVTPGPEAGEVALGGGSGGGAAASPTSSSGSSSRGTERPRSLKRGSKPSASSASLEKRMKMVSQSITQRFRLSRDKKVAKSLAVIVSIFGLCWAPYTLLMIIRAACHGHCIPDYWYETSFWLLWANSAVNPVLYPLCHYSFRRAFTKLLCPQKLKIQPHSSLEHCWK
5-hydroxytryptamine receptor 5A, sequence (L8HQU1 whole entry): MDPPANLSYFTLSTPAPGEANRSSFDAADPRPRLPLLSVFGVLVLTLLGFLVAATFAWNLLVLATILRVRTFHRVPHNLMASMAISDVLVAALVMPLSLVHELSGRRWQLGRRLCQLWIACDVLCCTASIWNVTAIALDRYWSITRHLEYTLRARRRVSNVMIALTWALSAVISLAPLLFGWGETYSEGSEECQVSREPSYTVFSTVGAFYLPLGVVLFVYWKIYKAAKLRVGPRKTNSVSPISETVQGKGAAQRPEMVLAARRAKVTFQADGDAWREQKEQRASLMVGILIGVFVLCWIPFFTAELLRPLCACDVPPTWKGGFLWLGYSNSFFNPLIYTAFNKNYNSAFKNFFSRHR
Thromboxane-A synthase, sequence (Q2KIG5 whole entry): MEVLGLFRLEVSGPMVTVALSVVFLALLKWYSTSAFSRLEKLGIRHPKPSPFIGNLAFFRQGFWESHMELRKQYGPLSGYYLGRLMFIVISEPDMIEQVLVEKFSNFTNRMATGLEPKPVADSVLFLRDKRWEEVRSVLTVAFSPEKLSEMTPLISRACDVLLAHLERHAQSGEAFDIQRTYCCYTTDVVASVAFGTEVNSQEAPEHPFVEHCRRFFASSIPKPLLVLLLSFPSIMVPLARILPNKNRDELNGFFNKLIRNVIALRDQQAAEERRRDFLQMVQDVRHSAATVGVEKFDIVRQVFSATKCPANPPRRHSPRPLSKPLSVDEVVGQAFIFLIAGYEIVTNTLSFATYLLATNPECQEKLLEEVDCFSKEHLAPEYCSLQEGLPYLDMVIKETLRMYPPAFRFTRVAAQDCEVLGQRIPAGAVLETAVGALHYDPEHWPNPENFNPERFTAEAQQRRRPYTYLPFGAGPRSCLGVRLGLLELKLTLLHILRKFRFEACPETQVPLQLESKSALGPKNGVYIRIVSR
Dopamine receptor D4, sequence (Q8WNT0 whole entry): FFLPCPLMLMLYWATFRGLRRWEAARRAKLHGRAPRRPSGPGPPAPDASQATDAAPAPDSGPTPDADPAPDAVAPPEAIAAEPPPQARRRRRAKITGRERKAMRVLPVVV

Ki [1]: > 10 µM
Ki (Vasopressin V2 receptor): > 10 µM
Ki (Histamine receptor H3): > 10 µM
Ki (Glutamate receptor [2]): > 10 µM
Ki (Dopamine receptor D4): 0.0218 µM
Ki (Thromboxane-A synthase): > 10 µM
Ki (Nischarin): > 10 µM
Ki [3]: 4.98 µM
Ki [4]: > 10 µM
Ki (Glutamate receptor [5]): > 10 µM
Ki [6]: > 10 µM
Ki [7]: > 10 µM
Ki (D(1A) dopamine receptor): > 10 µM
Ki [8]: > 10 µM
Ki [9]: 0.643 µM
Ki [10]: > 10 µM
Ki [11]: 0.0736 µM
Ki [12]: > 10 µM
Ki [13]: > 10 µM
Ki (Histamine H2 receptor): 2.13 µM
Ki (Neuromedin-K receptor): > 10 µM
Ki (Histamine H1 receptor): 1.03 µM
Ki (Vasopressin V1b receptor): > 10 µM
Ki (Substance-K receptor): > 10 µM
Ki [14]: 0.0883 µM
Ki (Cannabinoid receptor 2): > 10 µM
Ki [15]: > 10 µM
Ki (Beta-arrestin-1): > 10 µM
Ki (Mu-type opioid receptor): > 10 µM
Ki [16]: > 10 µM
Ki [17]: 0.00675 µM
Ki [18]: 0.0129 µM
Ki (Vasopressin V1a receptor): > 10 µM
Ki [19]: > 10 µM
Ki [20]: > 10 µM
Ki (Protein lifeguard 1): > 10 µM
Ki [21]: > 10 µM
Ki (Beta-arrestin-2): > 10 µM
Ki (D(2) dopamine receptor): > 10 µM
Ki [22]: > 10 µM
Compound: COc1ccccc1N1CCN(CCCCn2ncc(=O)n(C)c2=O)CC1 [NSC_11603174]

From BindingDB's records for doi:10.1007/s00259-006-0324-y (Columbia University, 2007)
